From patent US4647685A, “2-alkoxy-1-((2-trialkylaminoethoxy)phosphinyloxy)-alkenes and alkynes, hydroxy inner salts” (Eli Lilly and Company, priority 1985, dated 1987)
Where a name gives a salt, the structure may show the parent alone.

How the values were obtained:
CCRF-CEM cell line = assay: Inhibition of growth of human leukemic cells (CCRF-CEM Cytotoxicity Screen); assay type: cell-based; settings: in vitro, read-out: IC50 (concentration giving 50% growth inhibition)
[1] = test system: X-5563 (multiple myeloma); assay: Activity against X-5563 (multiple myeloma) tumor maintained in C3H mice; assay type: in vivo; settings: I.P. daily for 10 days, tumors measured days 10 to 12
Description: (§1) The following protocol was employed. The tumor was removed from passage animals and minced into 1 to 3 mm square fragments using sterile techniques. Tumor pieces were checked for sterility using both Antibiotic Medium 1 and Brain Heart Infusion (Difco; Detroit, MI). Recipient mice were shaved and tumor pieces were implanted subcutaneously in the axillary region by trocar. Drug therapy on the appropriate schedule was initiated on the day after tumor implant. The compound was dissolved in saline for all experiments. All animals were weighed at the beginning and end of drug treatment. Food and water were provided ad libitum. Each test group contains 5 animals. On days 10 to 12, two dimensional measurements (width and length) of all tumors were taken using vernier calipers. Tumor weights were calculated from these measurements using the following formula:
Tumor Weight (mg)=Tumor Length (mm) X Tumor Width (mm)^2 /2
(§2) For all data, the tumor weight was rounded to the nearest tenth of a gram for analysis. No group is included in the analysis for therapeutic activity in which deaths attributable to drug toxicity exceeded 30 percent of the treated group.
(§3) In Table 2 which follows, column 1 gives the name of the compound; column 2, the dose level; column 3, the percent inhibition of the tumor; and column 4, the toxic deaths. Drug and control doasges were administered I.P. daily for 10 days.

[2] = Toxic deaths in the X-5563 (multiple myeloma) tumor test; assay type: in vivo, C3H mice; settings: I.P. daily for 10 days
Description: as §1, with “formula: […]” for “formula:”
as §2, §3

| SMILES | IC50 (CCRF-CEM cell line) | Percent Inhibition of Tumor ([1]; 70 mg/kg) | Toxic Deaths ([2]; 70 mg/kg) | Percent Inhibition of Tumor ([1]; 50 mg/kg) | Toxic Deaths ([2]; 50 mg/kg) |
| --- | --- | --- | --- | --- | --- |
| CCCCC/C=C\C/C=C\CCCCCCCC(COP(=O)([O-])OCC[N+](C)(C)C)OC (racemic) [(Z,Z)-(±)-2-Methoxy-1-[(2-trimethylaminoethoxy)phosphinyloxy]-10,13-nonadecadiene, hydroxy inner salt] | 4.2 µg/mL | – | – | – | – |
| CCCCC/C=C\C/C=C\CCCCCCCC(COP(=O)([O-])OCC[N+](C)(C)C)OCC (racemic) [(Z,Z)-(±)-2-Ethoxy-1-[(2-trimethylaminoethoxy)phosphinyloxy]-10,13 nonadecadiene, hydroxy inner salt] | 6 µg/mL | 31% | 2/10 | – | – |
| CCCCCCCC/C=C\CCCCCCCC(COP(=O)([O-])OCC[N+](C)(C)C)OCC (racemic) [(Z)-(±)-2-ethoxy-1-[(2-trimethylaminoethoxy)phosphinyloxy]-10-nonadecene, hydroxy inner salt] | 1.6 µg/mL | – | – | 47% | 1/10 |
